From US6060043A, “Deodorant composition containing D-amino acid” (The Gillette Company, priority 1998, dated 2000)
≈ marks a conversion by molar mass, not a printed value.

Experiments:
[1] = system: Staphylococcus haemolyticus; assay: Minimum inhibitory concentration (MIC) in axillary bacteria, Staphylococcus strain; format: cell-based
Method: (§1) In vitro experiments were conducted in order to determine the ability of several bacterial cell wall synthesis inhibitors to inhibit the growth of axillary bacteria. The minimum inhibitory concentrations (MIC) of β-chloro-D-alanine (BCA), and D-cycloserine were determined in Staphylococcus (Staphylococcus haemolyticus) and Coryneform strains of axillary bacteria as follows: Frozen stock cultures were thawed out and 50 μl of Staphylococcus haemolyticus or 100 μl of Coryneform bacteria were inoculated into 5.0 ml of nutrient media. Bacteria were incubated at 35° C. overnight to produce cultures in log phase growth. A series of tubes was set up into which serial dilutions of BCA or triclosan in nutrient media were added in the range of 0.1 to 0.0001 wt/v % (where 1 g/100 ml=1 wt/v %). The tubes were inoculated with 50 μl of log phase Staphylococcus haemolyticus or Coryneform cultures and incubated at 35° C. overnight. […] The minimum bactericidal concentration (MBC) was determined by adding 50 μl from each clear solution of the MIC experiment into 5.0 ml of fresh nutrient media and incubating overnight at 37° C. […] The MIC of BCA was thus determined to be 0.1 wt/v % and 0.001 wt/v % in Staphylococcus haemolyticus and Coryneforms, respectively. The MIC of D-cycloserine was thus determined to be 0.01 wt/v % and 0.005 wt/v % in Staphylococcus haemolyticus and Coryneforms, respectively. By comparison, the MIC of the common antibacterial deodorant compound triclosan is 0.01 wt/v % and 0.1 wt/v % in Staphylococcus haemolyticus and Coryneforms, respectively.

Coryneform bacteria = assay: Minimum inhibitory concentration (MIC) in axillary bacteria, Coryneform strain; format: cell-based, Coryneform strains of axillary bacteria
Method: as §1

β-lyase = assay: Sniff vial test: malodor formation from precursors by whole Staphylococcus haemolyticus cells (beta-lyase inhibition); format: cell-based; details: 31-0.625 mM, phosphate buffer pH 6.8, 30 minutes at 35° C.; judged by smelling
Method: BCA was tested for its ability to prevent Staphylococcus haemolyticus from metabolizing sweat to form malodor. Log-phase cultures of Staphylococcus haemolyticus were incubated with various concentrations of BCA (31-0.625 mM) in phosphate buffer (pH 6.8) for 30 minutes at 35° C. The cell/BCA mixture was then added to a "sniff vial" containing malodor precursors and incubated at 35° C. for an additional 30 minutes. Malodor compounds were then extracted from the mixture with chloroform and malodor was judged by spotting 10 μl of chloroform extracts onto bibulous paper and smelling. […] In contrast, the β-lyase inhibitor aminooxyacetic acid (AOA) consistently prevents malodor in the above assay at concentrations of 5.0 mM.

[2] = In vivo test for axillary irritation of 1.0% BCA; parameters: species or system human; details: 1.0% in 60% propylene glycol/40% water, pH about 6.25, 1.0 ml, four consecutive days, seven panelists
Method: In vivo experiments were conducted to determine if 1.0% solutions of BCA were irritating to axillary skin. BCA was dissolved in a mixture of 60% propylene glycol and 40% water at a final concentration of 1.0%. The pH of the solution was adjusted to about 6.25 with 10 N NaOH. Seven panelists applied 1.0 ml of this test solution to a cotton applicator swab and applied the solution to either the right or left axilla. 1.0 ml of a control solution of 60% propylene glycol and 40% water was similarly applied to the other axilla. The side of application of the test or control solutions was assigned in a random fashion. This procedure was performed on four consecutive days. Axilla were monitored by a nurse for signs of skin irritation.

axillary malodor [3] = assay: Example 4: axillary malodor evaluation by trained odor judges, 1.0% BCA vs vehicle; format: in vivo, human; details: for 24 hours drop from untreated Control / Malodor Evaluation (score): 1.0% BCA; for Malodor Evaluation (score): 24 h after application, scale 0 to 10
Method: (§2) BCA was dissolved in a mixture of 60% propylene glycol and 40% water at a final concentration of 1.0%. The pH of the solution was adjusted to about 6.25 with 10 N NaOH. Thirty-nine female panelists applied 0.5 ml of this test solution to either the right or left axilla and 0.5 ml of a comparative solution of 60% propylene glycol and 40% water to the other. The side of application of the test or comparative solutions was assigned in a random fashion. Twenty-four hours after application, each side of the panelists' axilla was judged for odor by a panel of trained odor judges on a scale of 0 (no odor) to 10 (very intense, disagreeable odor). This procedure was performed on four consecutive days. […] Analysis of the clinical results is summarized below:
Significance was measured in a two-tailed T-test al 95% confidence level and n=number of subjects.

axillary malodor [4] = assay: Example 6: axillary malodor evaluation by odor judges, 1.0% β-chloro-D-alanine vs 1.0% β-chloro-L-alanine; format: in vivo, human; parameters: key to 24 Hour Drop from Control / A-B (drop), D-BCA minus L-BCA: drop in odor score on 0 (no odor) to 10 (very intense) scale; details: for 24 Hour Drop from Control: 1.0% in 60% propylene glycol/40% water
Method: as §2
A test product containing 1.0% β-chloro-D-alanine (BCA)[…] in 60% propylene glycol/40% water was compared to a comparative product containing 1.0% β-chloro-L-alanine in 60% propylene glycol/40% water by application to 50 female test subjects according to the procedure of Example 4.

Question: With `N[C@H](CCl)C(=O)O` [BCA, β-chloro-D-alanine] as the molecule, how does the MIC [1] read?
Answer: 1000 µg/mL (≈ 8.09 mM)

Question: What about the MIC (Coryneform bacteria) of the same molecule?
Answer: 10 µg/mL (≈ 0.0809 mM)

Question: And the “Inhibition of malodor formed by staphylococcal metabolism of precursors” value (β-lyase)?
Answer: did not inhibit malodor

Question: What about the Axillary skin irritation [2] of the same molecule?
Answer: No incidences of irritation were reported

Question: What about the Axillary skin irritation (axillary malodor [3]; 1.0% in 60% propylene glycol/40% water, 0.5 ml, four consecutive days, thirty-nine female panelists) of the same molecule?
Answer: No incidences of irritation were reported

Question: What about the “Deodorant efficacy versus 60% propylene glycol/40% water comparative product” value (axillary malodor [3]; 95% confidence level, measurements 3, 4 and composite) of the same molecule?
Answer: significantly more effective

Question: What about the “A-B (drop of comparative product minus drop of BCA product)” value (axillary malodor [3]; composite) of the same molecule?
Answer: -0.29

Question: And the “24 hours drop from untreated Control” value (axillary malodor [3]; composite)?
Answer: 0.96

Question: And the “Malodor Evaluation (score)” value (axillary malodor [3]; measurement 1)?
Answer: 4.18

Question: What about the “Malodor Evaluation (score)” value (axillary malodor [3]; measurement 2) of the same molecule?
Answer: 3.6

Question: What about the “Malodor Evaluation (score)” value (axillary malodor [3]; measurement 3) of the same molecule?
Answer: 3.3

Question: And the “Malodor Evaluation (score)” value (axillary malodor [3]; measurement 4)?
Answer: 3.49

Question: And the “A-B (drop of comparative product minus drop of BCA product)” value (axillary malodor [3]; post-application measurement 1)?
Answer: 0.11

Question: What about the “24 hours drop from untreated Control” value (axillary malodor [3]; post-application measurement 1) of the same molecule?
Answer: 0.41

Question: And the “A-B (drop of comparative product minus drop of BCA product)” value (axillary malodor [3]; post-application measurement 2)?
Answer: -0.21

Question: What about the “24 hours drop from untreated Control” value (axillary malodor [3]; post-application measurement 2) of the same molecule?
Answer: 0.99

Question: And the “A-B (drop of comparative product minus drop of BCA product)” value (axillary malodor [3]; post-application measurement 3)?
Answer: -0.50

Question: And the “24 hours drop from untreated Control” value (axillary malodor [3]; post-application measurement 3)?
Answer: 1.29

Question: What about the “A-B (drop of comparative product minus drop of BCA product)” value (axillary malodor [3]; post-application measurement 4) of the same molecule?
Answer: -0.62

Question: What about the “24 hours drop from untreated Control” value (axillary malodor [3]; post-application measurement 4) of the same molecule?
Answer: 1.10

Question: What about the “A-B (drop), D-BCA minus L-BCA” value (axillary malodor [4]; composite) of the same molecule?
Answer: 0.436

Question: And the “24 Hour Drop from Control” value (axillary malodor [4]; composite)?
Answer: 1.519

Question: And the “Control of malodor, BCA test product versus 1.0% β-chloro-L-alanine comparative product” value (axillary malodor [4]; measurements 2-4 and composite, 95% level of confidence, not the first measurement)?
Answer: significantly more effective

Question: What about the “A-B (drop), D-BCA minus L-BCA” value (axillary malodor [4]; post-application measurement 1) of the same molecule?
Answer: 0.166

Question: What about the “24 Hour Drop from Control” value (axillary malodor [4]; post-application measurement 1) of the same molecule?
Answer: 1.079

Question: And the “A-B (drop), D-BCA minus L-BCA” value (axillary malodor [4]; post-application measurement 2)?
Answer: 0.452

Question: And the “24 Hour Drop from Control” value (axillary malodor [4]; post-application measurement 2)?
Answer: 1.492

Question: What about the “A-B (drop), D-BCA minus L-BCA” value (axillary malodor [4]; post-application measurement 3) of the same molecule?
Answer: 0.665

Question: What about the “24 Hour Drop from Control” value (axillary malodor [4]; post-application measurement 3) of the same molecule?
Answer: 1.678

Question: And the “A-B (drop), D-BCA minus L-BCA” value (axillary malodor [4]; post-application measurement 4)?
Answer: 0.529

Question: What about the “24 Hour Drop from Control” value (axillary malodor [4]; post-application measurement 4) of the same molecule?
Answer: 1.862
